From publication PMC5421785, “Citrullination only infrequently impacts peptide binding to HLA class II MHC” (PLoS ONE, 2017)
Read-outs that look alike come from different tables or passages of the source. Square brackets hold non-standard residues; d marks the D form. Peptide text beside a SMILES is read from it. Cit = NC(=O)NCCC[C@H](N)C(=O)O

Experiments:
HLA-DRB1*04:01 = molecular target: T1, HLA-DRB1*04:01 (Homo sapiens, UniProt P01903+P01911, A100K/A169T/F76Y/I96L/K127E/L162R/M171V/N62H/P40V/Q125Y/R42H/S133A/S149N/S66Y/V115G/V209L/W38E); experiment: HLA class II peptide binding, inhibition of radiolabeled peptide binding to purified MHC; settings: for DRB1*04:01 binding capacity, WT/cit ratio: ratio of WT IC50 to Cit IC50
T1 construct: EBV transformed homozygous cell lines were used as sources of MHC molecules; endogenous in cells; host or cells: EBV transformed homozygous cell lines

HLA-DRB1*01:01 = molecular target: T2, HLA-DRB1*01:01 (Homo sapiens, UniProt P01903+P01911, A100R/D57E/F55L/F60I/F76Y/I96L/L162R/M171V/P40L/Q125E/R42F/V115G/Y59C); experiment: as above; settings: for DRB1*01:01 binding capacity, WT/cit ratio: ratio of WT IC50 to Cit IC50
T2 construct: EBV transformed homozygous cell lines were used as sources of MHC molecules; endogenous in cells; host or cells: EBV transformed homozygous cell lines

[1] = citrullinated 15-mer peptide (X = citrulline), purified HLA-DRB1*04:01, read-out: DRB1*04:01 binding capacity, Cit peptide (IC50 nM)
[2] = citrullinated 15-mer peptide (X = citrulline), purified HLA-DRB1*01:01, read-out: DRB1*01:01 binding capacity, Cit peptide (IC50 nM)
[3] = citrullinated 15-mer (X), purified MHC, inhibition of radiolabeled peptide binding, dash = IC50 >40,000 nM, read-out: DRB1*04:01 binding capacity, Cit peptide (IC50 nM)
[4] = citrullinated 15-mer (X), purified MHC, inhibition of radiolabeled peptide binding, dash = IC50 >40,000 nM, read-out: DRB1*01:01 binding capacity, Cit peptide (IC50 nM)

IC50 (HLA-DRB1*04:01; [1]) | IC50 (HLA-DRB1*01:01; [2]) | IC50 (HLA-DRB1*04:01; [3]) | IC50 (HLA-DRB1*01:01; [4]) | Compound | also measured
> 40000 nM | 2010 nM | – | – | CC(C)[C@H](NC(=O)CNC(=O)[C@H](C)NC(=O)[C@H](C)N)C(=O)N[C@@H](CCCCN)C(=O)NCC(=O)N[C@@H](CC(=O)O)C(=O)N[C@@H](CCCNC(N)=O)C(=O)NCC(=O)N[C@@H](CCC(=O)O)C(=O)N[C@H](C(=O)NCC(=O)N[C@@H](C)C(=O)N[C@H](C(=O)NCC(=O)O)C(C)C)[C@@H](C)O [AAGVKGDXGETGAVG] (H-AAGVKGD[Cit]GETGAVG-OH) | –
– | – | > 40000 nM | > 40000 nM | CC(C)C[C@H](NC(=O)[C@H](C)NC(=O)[C@H](CC(=O)O)NC(=O)[C@H](CC(N)=O)NC(=O)[C@H](CC(N)=O)NC(=O)[C@H](CCCNC(=N)N)NC(=O)[C@H](CC(N)=O)NC(=O)[C@H](C)NC(=O)[C@H](C)N)C(=O)N[C@@H](CCCNC(N)=O)C(=O)N[C@@H](CCC(N)=O)C(=O)N[C@@H](C)C(=O)N[C@@H](CCCCN)C(=O)N[C@@H](CCC(N)=O)C(=O)N[C@@H](CCC(=O)O)C(=O)O [AANRNNDALXQAKQE] (H-AANRNNDAL[Cit]QAKQE-OH; N-terminus and C-terminus assumed) | DRB1*04:01 binding capacity, WT/cit ratio (HLA-DRB1*04:01): 1.0; DRB1*01:01 binding capacity, WT/cit ratio (HLA-DRB1*01:01): 1.0
– | – | > 40000 nM | > 40000 nM | CC(C)C[C@H](NC(=O)[C@H](C)NC(=O)[C@H](CC(=O)O)NC(=O)[C@H](CC(N)=O)NC(=O)[C@H](CC(N)=O)NC(=O)[C@H](CCCNC(N)=O)NC(=O)[C@H](CC(N)=O)NC(=O)[C@H](C)NC(=O)[C@H](C)N)C(=O)N[C@@H](CCCNC(=N)N)C(=O)N[C@@H](CCC(N)=O)C(=O)N[C@@H](C)C(=O)N[C@@H](CCCCN)C(=O)N[C@@H](CCC(N)=O)C(=O)N[C@@H](CCC(=O)O)C(=O)O [AANXNNDALRQAKQE] (H-AAN[Cit]NNDALRQAKQE-OH; N-terminus and C-terminus assumed) | DRB1*04:01 binding capacity, WT/cit ratio (HLA-DRB1*04:01): 1.0; DRB1*01:01 binding capacity, WT/cit ratio (HLA-DRB1*01:01): 1.0
– | – | 23300 nM | 6180 nM | CC(C)C[C@H](NC(=O)[C@H](C)NC(=O)[C@H](CC(=O)O)NC(=O)[C@H](CC(N)=O)NC(=O)[C@H](CC(N)=O)NC(=O)[C@H](CCCNC(=N)N)NC(=O)[C@H](CC(N)=O)NC(=O)[C@H](C)NC(=O)[C@H](C)NC(=O)[C@H](CCC(=O)O)NC(=O)[C@H](CO)NC(=O)[C@H](CC(C)C)NC(=O)[C@H](CC(=O)O)NC(=O)[C@H](C)N)C(=O)N[C@@H](CCCNC(N)=O)C(=O)O [ADLSEAANRNNDALX] (H-ADLSEAANRNNDAL[Cit]-OH) | –
– | – | 22200 nM | 7340 nM | CC(C)C[C@H](NC(=O)[C@H](C)NC(=O)[C@H](CC(=O)O)NC(=O)[C@H](CC(N)=O)NC(=O)[C@H](CC(N)=O)NC(=O)[C@H](CCCNC(N)=O)NC(=O)[C@H](CC(N)=O)NC(=O)[C@H](C)NC(=O)[C@H](C)NC(=O)[C@H](CCC(=O)O)NC(=O)[C@H](CO)NC(=O)[C@H](CC(C)C)NC(=O)[C@H](CC(=O)O)NC(=O)[C@H](C)N)C(=O)N[C@@H](CCCNC(=N)N)C(=O)O [ADLSEAANXNNDALR] (H-ADLSEAAN[Cit]NNDALR-OH) | –
> 40000 nM | 594 nM | – | – | CC(C)C[C@H](NC(=O)CNC(=O)[C@H](CCCNC(=N)N)NC(=O)[C@H](CCC(=O)O)NC(=O)CNC(=O)[C@@H]1CCCN1C(=O)[C@H](CCC(=O)O)NC(=O)CNC(=O)[C@H](C)N)C(=O)N[C@@H](CCCCN)C(=O)NCC(=O)N[C@@H](Cc1c[nH]cn1)C(=O)N[C@@H](CCCNC(N)=O)C(=O)NCC(=O)N[C@@H](Cc1ccccc1)C(=O)O [AGEPGERGLKGHXGF] (H-AGEPGERGLKGH[Cit]GF-OH) | –
> 40000 nM | 783 nM | – | – | CC(C)C[C@H](NC(=O)CNC(=O)[C@H](CCCNC(N)=O)NC(=O)[C@H](CCC(=O)O)NC(=O)CNC(=O)[C@@H]1CCCN1C(=O)[C@H](CCC(=O)O)NC(=O)CNC(=O)[C@H](C)N)C(=O)N[C@@H](CCCCN)C(=O)NCC(=O)N[C@@H](Cc1c[nH]cn1)C(=O)N[C@@H](CCCNC(=N)N)C(=O)NCC(=O)N[C@@H](Cc1ccccc1)C(=O)O [AGEPGEXGLKGHRGF] (H-AGEPGE[Cit]GLKGHRGF-OH) | –
– | – | 931 nM | 2370 nM | CC[C@H](C)[C@H](NC(=O)[C@H](C)N)C(=O)N[C@@H](CC(N)=O)C(=O)N[C@H](C(=O)N[C@@H](CCC(=O)O)C(=O)N[C@@H](Cc1ccccc1)C(=O)N[C@@H](CCCCN)C(=O)N[C@@H](CC(N)=O)C(=O)N[C@H](C(=O)N[C@@H](CCCNC(N)=O)C(=O)N[C@H](C(=O)N[C@@H](CC(N)=O)C(=O)N[C@@H](CCC(=O)O)C(=O)N[C@@H](CCCCN)C(=O)N[C@H](C(=O)O)C(C)C)[C@@H](C)O)[C@@H](C)O)[C@@H](C)O [AINTEFKNTXTNEKV] (H-AINTEFKNT[Cit]TNEKV-OH) | –
– | – | – | – | CSCC[C@H](NC(=O)[C@H](CCC(N)=O)NC(=O)[C@@H](NC(=O)[C@H](CC(N)=O)NC(=O)[C@H](C)N)C(C)C)C(=O)N[C@H](C(=O)N[C@@H](Cc1ccccc1)C(=O)N[C@@H](CC(C)C)C(=O)N[C@@H](CCCNC(N)=O)C(=O)N[C@@H](CC(C)C)C(=O)N[C@@H](CC(C)C)C(=O)N[C@@H](CO)C(=O)N[C@H](C(=O)N[C@@H](CCC(=O)O)C(=O)NCC(=O)O)[C@@H](C)O)[C@@H](C)O [ANVQMTFLXLLSTEG] (H-ANVQMTFL[Cit]LLSTEG-OH) | IC50 (HLA-DRB1*04:01; citrullinated peptide as listed (X at Cit position), read-out: DRB1*04:01 binding capacity Cit peptide (IC50 nM)): 1060 nM; IC50 (HLA-DRB1*01:01; citrullinated peptide as listed (X at Cit position), read-out: DRB1*01:01 binding capacity Cit peptide (IC50 nM)): 65 nM
6720 nM | 1050 nM | – | – | CC[C@H](C)[C@H](NC(=O)[C@H](CCC(=O)O)NC(=O)[C@H](CC(=O)O)NC(=O)[C@H](CCC(N)=O)NC(=O)[C@H](CC(C)C)NC(=O)[C@H](CCCNC(N)=O)NC(=O)CNC(=O)[C@@H](NC(=O)[C@@H](NC(=O)[C@H](CC(=O)O)NC(=O)[C@H](CCC(N)=O)NC(=O)[C@H](Cc1ccc(O)cc1)NC(=O)[C@H](CC(N)=O)NC(=O)[C@H](C)N)[C@@H](C)O)[C@@H](C)CC)C(=O)N[C@@H](CCC(N)=O)C(=O)O [ANYQDTIGXLQDEIQ] (H-ANYQDTIG[Cit]LQDEIQ-OH) | –
– | – | 12000 nM | 1340 nM | CC(C)C[C@H](NC(=O)[C@H](CCCNC(=N)N)NC(=O)[C@H](C)N)C(=O)N[C@@H](CC(=O)O)C(=O)N[C@@H](CC(C)C)C(=O)N[C@@H](CCC(=O)O)C(=O)N[C@@H](CCCNC(N)=O)C(=O)N[C@@H](CCCCN)C(=O)N[C@H](C(=O)N[C@@H](CCC(=O)O)C(=O)N[C@@H](CO)C(=O)N[C@@H](CC(C)C)C(=O)N[C@@H](CCC(N)=O)C(=O)N[C@@H](CCC(=O)O)C(=O)N[C@@H](CCC(=O)O)C(=O)O)C(C)C [ARLDLEXKVESLQEE] (H-ARLDLE[Cit]KVESLQEE-OH) | –
– | – | 1630 nM | 12900 nM | CC(C)[C@H](NC(=O)[C@H](Cc1ccc(O)cc1)NC(=O)[C@H](CO)NC(=O)[C@H](CCCNC(N)=O)NC(=O)[C@H](CO)NC(=O)[C@H](CO)NC(=O)[C@H](CO)NC(=O)[C@@H]1CCCN1C(=O)[C@H](CCCNC(=N)N)NC(=O)[C@H](CO)NC(=O)[C@H](C)N)C(=O)N[C@H](C(=O)N[C@H](C(=O)N[C@@H](CO)C(=O)N[C@H](C(=O)O)[C@@H](C)O)[C@@H](C)O)[C@@H](C)O [ASRPSSSXSYVTTST] (H-ASRPSSS[Cit]SYVTTST-OH) | –
– | 28 nM | – | – | CC(C)C[C@H](NC(=O)CNC(=O)[C@H](CCCNC(=N)N)NC(=O)[C@@H](N)CCC(=O)O)C(=O)N[C@@H](CCCCN)C(=O)NCC(=O)N[C@@H](Cc1c[nH]cn1)C(=O)N[C@@H](CCCNC(N)=O)C(=O)NCC(=O)N[C@@H](Cc1ccccc1)C(=O)N[C@H](C(=O)NCC(=O)N[C@@H](CC(C)C)C(=O)N[C@@H](CCC(N)=O)C(=O)NCC(=O)O)[C@@H](C)O [ERGLKGHXGFTGLQG] (H-ERGLKGH[Cit]GFTGLQG-OH) | –
